Data on 10 compounds can be found in patent US12291537B2, “Compounds, compositions and methods” (priority 2022, dated 2025).

Square brackets hold non-standard residues; d marks the D form. Peptide text beside a SMILES is read from it. * marks the point of attachment. Dolaproine = CO[C@@H]([C@@H]1CCCN1)[C@@H](C)C(=O)O; Dil = CC[C@H](C)[C@H](NC)[C@@H](CC(=O)O)OC; X1 = C[C@@H](N*)[C@@H](O)c1ccccc1; NMeV = CN[C@H](C(=O)O)C(C)C

By IC50 is commonly meant the concentration needed to halve the response being measured. The low end stands for greater potency in that assay, the high end for weaker potency in that assay. As usually defined, the viability is a read-out of living cells in per cent, often relative to untreated cells. A low value points to a greater loss of cells.

Common to all, as to assay type: cell-based
Series [1] has as its system HT-29 (colorectal cancer) cells. The series is described as follows: Cytotoxicity testing of compounds (cell titer-Glo). As to the method:
(§1) They were then incubated at 37° C., 5% CO2 for overnight. […] After 5 days, 30 μL cell titer-Glo Luminescent buffer was added to each well and the plate was incubated for 20 min at room temperature. Luminescence signal was detected by the Envison microplatereader.

A further series relates to MDA-MB-468 (TNBC) cells. The series is described as follows: Cytotoxicity testing of compounds (cell titer-Glo). As to the method:
as §1
In general terms: In ATP-based viability assays light output follows the ATP content of the culture.

A short description of series [2]: Cytotoxicity testing of compounds (cell titer-Glo), second round. The settings on record: human. The procedure:
(§2) HT-29 (colorectal cancer) and MDA-MB-468 (TNBC) cells were harvested and seeded with 3000 cell per well into 96-well cell culture plates respectively. They were then incubated at 37° C., 5% CO2 for overnight. Each compound was diluted 3-fold from 500 nM, and added to each well respectively. After 5 days, 30 μL cell titer-Glo Luminescent buffer was added to each well and the plate was incubated for 20 min at room temperature. Luminescence signal was detected by the Envison microplatereader.
(§3) In a second round of testing, C-2a and C-2b, along with 6 other compounds (C-1a, C-1b, C-3a, C-3b, C-5a, and C-4a) were tested with the same cell lines plus A549, a NSCLC cell line.

The next series has as its system A549, a NSCLC cell line. The description is as above. The settings on record: A549, second round (Table 2). The procedure: as §2, §3
Series [3] is described as follows: Cytotoxicity testing of compounds (cell titer-Glo). The settings on record: human, Min cell viability. The procedure: as §1
The subject of series [4] is HT-29, MDA-MB-468 and A549 cells. The series is described as follows: Cytotoxicity testing of compounds, text statements over the cell lines. The settings on record: first round; HT-29 and MDA-MB-468. As to the method: as §2, §3
Setting [5] is: Homo sapiens, HT-29, HT29, second round (Table 2).
[6] abbreviates: Homo sapiens, second round (Table 2).
The mark [7] stands for this setting: Homo sapiens, HT-29, 120 h, HT29, first round (Table 1), 5 days.
The mark [8] stands for this setting: Homo sapiens, 120 h, first round (Table 1), 5 days.
The mark [9] stands for this setting: HT29, first round (Table 1), 5 days.

As for `CC[C@@]1(O)C(=O)OCc2c1cc1n(c2=O)Cc2c-1nc1cc(F)c(C)c3c1c2CC(N)C3` (mixture of isomers) [Compound C-5a], the IC50 worked out at 26.6 nM in series [1] (setting [5]); 2.4 nM in the series with MDA-MB-468 (TNBC) cells (setting [6]); 22 nM in the series with A549, a NSCLC cell line (Homo sapiens). In series [2], this compound came in with a viability at 5 days of 19.4%.
Taken in the same sequence, the figures for `CC[C@@]1(O)C(=O)OCc2c1cc1n(c2=O)Cc2c-1nc1cc(F)c(C)c3c1c2CC[C@H]3N` [Compound C-1b] were 18.5 nM, 3.1 nM, 13.7 nM and 14.5%.
In the case of `CCc1c(F)cc2nc3c(c4c2c1CC[C@@H]4N)Cn1c-3cc2c(c1=O)COC(=O)[C@]2(O)CC` [Compound C-2b], the values for the viability at 5 days in series [3] and in series [2] were 1.9% and 23.6%, respectively. Also, the IC50 in series [1] (setting [7]) was 5.6 nM; in series [1] (setting [5]), roughly 52.7 nM; with MDA-MB-468 (TNBC) cells (setting [8]), 1 nM; in the series on MDA-MB-468 (TNBC) cells (setting [6]), 5.2 nM; in the series on A549, a NSCLC cell line (Homo sapiens) it was 24.2 nM. In series [1] (human, 5 days), this compound showed a Min cell viability of 3.7. Moreover, the “inhibition of cells proliferation” value in series [4] is “inhibited cells proliferation in a concentration-dependent manner”.
`CC[C@@]1(O)C(=O)OCc2c1cc1n(c2=O)Cc2c-1nc1cc(F)c(C)c3c1c2[C@H](Nc1cccc(CN)c1)CC3` [Compound C-4a]: the IC50 in the series on MDA-MB-468 (TNBC) cells (setting [6]) is 115 nM. In series [2], this compound returned a viability at 5 days of 83%.
As to `CC[C@@]1(O)C(=O)OCc2c1cc1n(c2=O)Cc2c-1nc1cc(F)c(C(C)C)c3c1c2[C@H](N)CC3` [Compound C-3a], the IC50 in series [1] (setting [5]) was determined as 76.6 nM; with MDA-MB-468 (TNBC) cells (setting [6]), 8.8 nM; with A549, a NSCLC cell line (Homo sapiens), 36.6 nM. Besides, the viability at 5 days in series [2] was 23.8%.
Take `CCc1c(F)cc2nc3c(c4c2c1CC[C@H]4N)Cn1c-3cc2c(c1=O)COC(=O)[C@]2(O)CC` [Compound C-2a]: the viability at 5 days worked out at 4.6% in series [3] and 19.7% in series [2]. For the same compound, the IC50 worked out at 5.7 nM in series [1] (setting [7]); 40.1 nM in series [1] (setting [5]); 1.6 nM in the series on MDA-MB-468 (TNBC) cells (setting [8]); 5.6 nM in the series with MDA-MB-468 (TNBC) cells (setting [6]); 18.9 nM with A549, a NSCLC cell line (Homo sapiens). In series [1] (human, 5 days), the Min cell viability was 4.8. Moreover, the “inhibition of cells proliferation” value in series [4] is listed as “inhibited cells proliferation in a concentration-dependent manner”.
Consider `CC[C@@]1(O)C(=O)OCc2c1cc1n(c2=O)Cc2c-1nc1cc(F)c(C)c3c1c2CC[C@@H]3N` [Compound C-1a], for which the half-inhibitory concentration (IC50) is 21.1 nM in series [1] (setting [5]); 3.6 nM with MDA-MB-468 (TNBC) cells (setting [6]); 16.6 nM in the series on A549, a NSCLC cell line (Homo sapiens). Moreover, the viability at 5 days in series [2] was 20.3%.
Take `CC[C@H](C)[C@@H]([C@@H](CC(=O)N1CCC[C@H]1[C@H](OC)[C@@H](C)C(=O)N[C@H](C)[C@@H](O)c1ccccc1)OC)N(C)C(=O)[C@@H](NC(=O)[C@@H](NC)C(C)C)C(C)C` [MMAE, reference compound] (H-[NMeV]V[Dil][Dolaproine]-X1): the IC50 is roughly 0.5 nM in series [1] (setting [9]); 1.1 nM in series [1] (HT29, second round (Table 2)); 0.1 nM in the series with MDA-MB-468 (TNBC) cells (first round (Table 1), 5 days); 0.3 nM in the series on MDA-MB-468 (TNBC) cells (second round (Table 2)); 2 nM in the series on A549, a NSCLC cell line. Moreover, the Min cell viability in series [1] (setting [9]) came to 21.3; in series [1] (HT29, second round (Table 2)), 35.5; in the series with MDA-MB-468 (TNBC) cells (first round (Table 1), 5 days), 4.6; in the series on MDA-MB-468 (TNBC) cells (second round (Table 2)), 6.3. Also, the “inhibition of cells proliferation” value in series [4] is given as “inhibited cells proliferation in a concentration-dependent manner”.
On to `CC[C@@]1(O)C(=O)OCc2c1cc1n(c2=O)Cc2c-1nc1cc(F)c(C(C)C)c3c1c2[C@@H](N)CC3` [Compound C-3b], for which the IC50 in the series on MDA-MB-468 (TNBC) cells (setting [6]) was 17.6 nM; with A549, a NSCLC cell line (Homo sapiens), 114 nM. Moreover, in series [2], the viability at 5 days worked out at 30.6%.
In the case of `CC[C@@]1(O)C(=O)OCc2c1cc1n(c2=O)Cc2c-1nc1cc(F)c(C)c3c1c2[C@@H](NC(=O)CO)CC3` [DXD, reference compound], the IC50 was 25.2 nM in series [1] (setting [9]); 105 nM in series [1] (HT29, second round (Table 2)); 3.2 nM with MDA-MB-468 (TNBC) cells (first round (Table 1), 5 days); 4.2 nM in the series on MDA-MB-468 (TNBC) cells (second round (Table 2)); 126 nM in the series on A549, a NSCLC cell line. Moreover, the Min cell viability was found to be 4.0 in series [1] (setting [9]); 11.4 in series [1] (HT29, second round (Table 2)); 1.2 with MDA-MB-468 (TNBC) cells (first round (Table 1), 5 days); 4.1 in the series on MDA-MB-468 (TNBC) cells (second round (Table 2)); 28.4 in the series with A549, a NSCLC cell line. In addition, the “inhibition of cells proliferation” value in series [4] is recorded as “inhibited cells proliferation in a concentration-dependent manner”.
